The values below come from PMC10163008 (Nature Communications, 2023).

Data set [1] concerns CHLA-20 cells (ALK R1275Q, parental). Put plainly: Cell viability assay (Cell Titer-Glo, 120 h). In kind it is cell-based, human. The note with it: cell viability after 120 h of treatment.
In data set [2] the test system is CHLA-20 cells with ALK R1275Q/G1202R (CRISPR, in cis). Nature of the data set: Cell viability assay (Cell Titer-Glo, 120 h). In kind it is cell-based, human. (ATP-based viability assays read luminescence as a measure of living cells.)
Data set [3] relates to patients with ALK-driven relapsed/refractory neuroblastoma. Nature of the data set: Serial ctDNA profiling (FoundationACT / FoundationOne Liquid CDx) and clinical response in the NANT phase 1 lorlatinib trial. The note with it: Group 3 (ALK undetectable) patients, all responded.
Experimental: Optional blood sampling was prospectively performed at predefined time points including pretreatment, after courses 2,4,6, and then after every 4th course and at disease progression. Patients <18 years of age were treated across 5 dose levels (cohort A1).
Blood samples for circulating tumor DNA profiling were drawn prior to enrollment, after courses 2, 4, and 6, and then after every 4 courses of treatment for the duration of patient participation in the trial. Forty-six patients were evaluable for this ctDNA study.
16-20 ml of whole blood was drawn from each patient and sent to Foundation Medicine in Streck tubes for ctDNA profiling.
Sequencing data were analyzed for the presence of short variants (single base substitutions and short insertions/deletions), copy number amplifications and homozygous deletions, and detectable gene rearrangements. […]
For most samples, we were able to estimate the ctDNA quantity using the comprehensive tumor fraction (CTF) method, using established computational methods[46],[47]. For samples in which no ALK was detected, we analyzed CTF to determine if any ctDNA was found in the cell-free DNA sequenced. For samples where CTF could not be calculated, MSAF was manually assessed to determine the fraction of ctDNA content[48]. […]

Several values for one entry are separate records, joined by “and”; a condition that tells them apart may be missing. Equal values may be shown once.

Regarding `C[C@H]1Oc2cc(cnc2N)-c2c(nn(C)c2C#N)CN(C)C(=O)c2ccc(F)cc21` [lorlatinib, (10R)-7-amino-12-fluoro-2,10,16-trimethyl-15-oxo-10,15,16,17-tetrahydro-2H-8,4-(metheno)pyrazolo[4,3-h][2,5,11]-benzoxadiazacyclotetradecine-3-carbonitrile], the IC50 in data set [1] worked out at 15 ± 4 nM; in data set [2] (cell viability after 120 h of treatment), 318 ± 58 nM. In data set [2] ([lorlatinib] 33, 120 h, exp #1-#9), the cell viability is 104.185 and 94.5372 and 95.8368 and 98.7284 and 103.246 and 102.304 and 104.304 and 98.5652. In addition, the duration of response in data set [3] is 4 to 48 cycles of therapy.

Broadly, the IC50 is the midpoint of a concentration-inhibition curve.
